This assay deals with T1, HuR (Hu antigen R, ELAVL1) (Homo sapiens, UniProt Q15717).
T1 construct: full-length HuR (FP, SPR); HuR RRM1/2 (AlphaLISA, SPR)
As to the kind of experiment: FP competition with fluorescein-labeled ARE-Msi1 RNA; SPR direct binding to immobilized HuR; AlphaLISA (Ki […]); CETSA in MDA-MB-231 cells.

The results in this text go back to PMC7181695, “Targeting the interaction between RNA-binding protein HuR and FOXQ1 suppresses breast cancer invasion and metastasis” (Communications Biology, 2020).

T1 sequence (Q15717 2-326): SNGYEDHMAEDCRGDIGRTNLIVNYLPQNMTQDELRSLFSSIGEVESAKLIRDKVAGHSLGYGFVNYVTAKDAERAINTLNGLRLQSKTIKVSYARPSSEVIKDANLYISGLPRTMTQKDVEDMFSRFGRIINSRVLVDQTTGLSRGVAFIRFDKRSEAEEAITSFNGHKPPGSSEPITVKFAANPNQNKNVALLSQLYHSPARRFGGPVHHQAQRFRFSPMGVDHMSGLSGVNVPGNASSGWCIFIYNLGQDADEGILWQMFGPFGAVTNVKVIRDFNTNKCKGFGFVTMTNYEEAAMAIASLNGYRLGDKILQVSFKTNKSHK

Molecule `CC(C)(C)c1ccc(S(=O)(=O)Nc2ccc3sc(/C=C/C(=O)NO)cc3c2)cc1` [KH-3, (E)-3-(5-((4-(tert-Butyl)phenyl)sulfonamido)benzo[b]thiophen-2-yl)-N-hydroxyacrylamide] came in with an inhibitory constant (Ki) of 830 nM. This counts as sub-micromolar.

As usually defined, the Ki is a measure of affinity in units of concentration, obtained from inhibition or displacement.
